US20250084095A1, “Aminopyrimidine Derivatives as Cyclin-Dependent Kinase Inhibitors” (Accutar Biotechnology Inc., priority 2023, published 2025)

Assays:
[1] = test system: Phospho-Rb (Ser807/811) in SW1573-CDK6 KO cells; assay: Phospho-Rb expression inhibition in SW1573-CDK6 KO cells quantified by in cell Western; type: cell-based; details: Homo sapiens, 24 hours, read-out: SW1573 CDK6 KO pRb IC50
Description: (§1) Parental SW1573 cells were obtained from the American Type Culture Collection (ATCC). CDK4 or CDK6 gene in […] cells was knocked out using the CRISPR-Cas9 technology. First, gRNA complex of CDK4 or CDK6 was prepared with Alt-R CRISPR-Cas9 tracrRNA and crRNA CDK4 (5′-[…]-3′ (SEQ ID NO: 4)) or CDK6 (5′-[…]-3′ (SEQ ID NO. 5)) (IDT-Integrated DNA Technologies), and then ribonucleoprotein (RNP) complex of CDK4 or CDK6 was prepared with respective gRNA complex and Alt-R S.p. Cas9 Nuclease V3 (IDT-Integrated DNA Technologies). Next, 5×10^4/10 μL SWJ1573 cells were electroporated with the CDK4 or CDK6 RNP complex and Alt-R Cas9 Electroporation Enhancer using Neon Transfection System (Thermo Fisher). Cells were then plated in a 96-well plate to select single clones for validation of CDK4 or CDK6 knockout by western blot analysis.
(§2) MCF7 cells were obtained from American Type Culture Collection (ATCC, HTB-22). SW1573-CDK6 KO and SW1573-CDK4 KO cells were generated by the CRISPR-Cas9 technology. All cells were plated in 96-well plates (VWR #10062-900, or Corning #3904) in 90 uL culture medium at a density of 20,000 cells/well in the respective growth medium containing 10% FBS and 1% Penicillin Streptomycin, and then incubated at 37° C. overnight. The following day, the test compound was administered to the cells by using 1000× compound stock solution prepared in DMSO at various concentrations. 1000× compound stock solution was first diluted in culturing medium to 10×, then 10 uL compound medium was added to each well in the cell plates. After administration of the compound, the cells were then incubated at 37° C. for 24 hours. Upon completion, the cells were washed with PBS briefly. 150 uL/well of 4% formaldehyde was added and the plates were incubated at room temperature for 20 mins. The cells were washed with PBS briefly, and permeabilized with 150 uL/well of ice cold 100% methanol for 10 mins. The cells were washed with PBS briefly and blocked with 100 uL/well LI-COR blocking buffer for 1 hr at room temperature with gentle shaking. The cells were incubated overnight at 4° C. with 50 uL primary antibody rabbit anti-Phospho-Rb (Ser807/811) (1: 500, Cell Signaling, #8516) and anti-Rb (1:200, Santa Cruz, sc-73598) diluted in Intercept Blocking Buffer (LI-COR, #927-60001) containing 0.1% Tween 20. The next day, the cells were washed with 200 uL PBS containing 0.1% Tween 20, 5×5 mins at room temperature with gentle shaking, and incubated with 50 uL secondary antibody, IRDye® 800CW Goat anti-Rabbit IgG (1:1000, LI-COR, #926-32211) and IRDye®680RD Goat anti-Mouse IgG (1:1000, LI-COR, #926-68070), in LI-COR blocking buffer with 0.2% Tween 20 for 1 hr at room temperature with gentle shaking. The cells were washed with 200 uL PBS containing 0.1% Tween 20, 5×5 mins at room temperature with gentle shaking. The cells were washed with PBS for 5 mins. 100 uL fresh PBS was added to each well and the plates were imaged on a LI-COR Odyssey CLX plate reader.

[2] = test system: Phospho-Rb (Ser807/811) in MCF7 cells; assay: Phospho-Rb expression inhibition in MCF7 cells quantified by in cell Western; type: cell-based, human; details: Homo sapiens, MCF7, 24 h, 24 hours, in cell Western, read-out: MCF7 pRb IC50
Summary of the method: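 MCF7 cells were seeded at 20,000/well, grown overnight, then treated 24 h at 37 °C with compound dilutions (0.1% DMSO from 1000× stocks). Fixed cells were co-stained for phospho-Rb Ser807/811 and total Rb. Near-infrared dual-channel in-cell Western imaging was the read-out.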

[3] = test system: Phospho-Rb (Ser807/811) in SW1573-CDK4 KO cells; assay: Phospho-Rb expression inhibition in SW1573-CDK4 KO cells quantified by in cell Western; type: cell-based; details: Homo sapiens, 24 hours, read-out: SW1573 CDK4 KO pRb IC50
Description: as §1, §2

22RV1 cells = assay: Cell growth inhibition of 22RV1 cells (CellTiter-Glo); type: cell-based; details: Homo sapiens, 22Rv1, 120 h, 5 days, CellTiter-Glo, read-out: 22RV1 Cell Growh GI50
Summary of the method: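 22RV1 cells were plated in RPMI1640 with FBS (20% in one version, 10% in the other) and dosed next day at various concentrations from DMSO stocks. After 5 days at 37 °C, viability was measured by CellTiter-Glo luminescence.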

| SMILES | IC50 [1] | IC50 [2] | IC50 [3] | GI50 (22RV1 cells) |
| --- | --- | --- | --- | --- |
| CC(C)c1cn(C)c(=O)c2c(F)cc(-c3nc(N[C@@H]4C[C@H]5CO[C@H](O5)[C@H]4O)ncc3Cl)cc12 [Compound 188, 6-(5-chloro-2-(((1S,3R,4S,5R)-4-hydroxy-6,8-dioxabicyclo[3.2.1]octan-3-yl)amino)pyrimidin-4-yl)-8-fluoro-4-isopropyl-2-methylisoquinolin-1(2H)-one] | – | 150 to 1000 nM | – | 120 to 450 nM |
| CC(C)(O)C1=Nc2c(F)cc(-c3nc(N[C@@H]4C[C@H]5CO[C@H](O5)[C@H]4O)ncc3Cl)cc2C12CCCC2 [Compound 33, (1S,3R,4S,5R)-3-((5-chloro-4-(7′-fluoro-2′-(2-hydroxypropan-2-yl)spiro[cyclopentane-1,3′-indol]-5′-yl)pyrimidin-2-yl)amino)-6,8-dioxabicyclo[3.2.1]octan-4-ol] | – | 40 to 150 nM | – | 120 to 450 nM |
| CC(C)(O)c1nc2c(F)cc(-c3nc(N[C@@H]4C[C@H]5CO[C@H](O5)[C@H]4O)ncc3Cl)cc2n1C1(CF)CC1 [Compound 167, (1S,3R,4S,5R)-3-((5-chloro-4-(4-fluoro-1-(1-(fluoromethyl)cyclopropyl)-2-(2-hydroxypropan-2-yl)-1H-benzo[d]imidazol-6-yl)pyrimidin-2-yl)amino)-6,8-dioxabicyclo[3.2.1]octan-4-ol] | – | 40 to 150 nM | – | ≤ 120 nM |
| CC(C)n1c(CN2[C@@H](C)COC[C@@H]2C)c(F)c(=O)c2ccc(-c3nc(N[C@@H]4C[C@H]5CO[C@H](O5)[C@H]4O)ncc3F)cc21 [Compound 200, 2-(((3S,5S)-3,5-dimethylmorpholino)methyl)-3-fluoro-7-(5-fluoro-2-(((1S,3R,4S,5R)-4-hydroxy-6,8-dioxabicyclo[3.2.1]octan-3-yl)amino)pyrimidin-4-yl)-1-isopropylquinolin-4(1H)-one] | – | 40 to 150 nM | – | 120 to 450 nM |
| CC(C)n1c([C@@H]2COC(=O)N2)nc2c(F)cc(-c3nc(N[C@@H]4C[C@H]5CO[C@H](O5)[C@H]4O)ncc3Cl)cc21 [Compound 184, (R)-4-(6-(5-chloro-2-(((1S,3R,4S,5R)-4-hydroxy-6,8-dioxabicyclo[3.2.1]octan-3-yl)amino)pyrimidin-4-yl)-4-fluoro-1-isopropyl-1H-benzo[d]imidazol-2-yl)oxazolidin-2-one] | – | 150 to 1000 nM | – | 120 to 450 nM |

The next lines start with the values.

| IC50 [1] | IC50 [2] | IC50 [3] | GI50 (22RV1 cells) | SMILES |
| --- | --- | --- | --- | --- |
| ≤ 40 nM | ≤ 40 nM | 150 to 1000 nM | – | CC(C)n1c(C2CCC2(F)F)nc2c(F)cc(-c3nc(N[C@@H]4C[C@H]5CO[C@H](O5)[C@H]4O)ncc3Cl)cc21 (stereo partly drawn) [Compound 239, (1S,3R,4S,5R)-3-((5-chloro-4-(2-(2,2-difluorocyclobutyl)-4-fluoro-1-isopropyl-1H-benzo[d]imidazol-6-yl)pyrimidin-2-yl)amino)-6,8-dioxabicyclo[3.2.1]octan-4-ol] |
| 150 to 1000 nM | 40 to 150 nM | > 1000 nM | – | CC(C)n1c([C@H]2C[C@H]2C(=O)N(C)C)nc2c(F)cc(-c3nc(N[C@@H]4C[C@H]5CO[C@H](O5)[C@H]4O)ncc3Cl)cc21 [Compound 248, (1R,2S)-2-(6-(5-chloro-2-(((1S,3R,4S,5R)-4-hydroxy-6,8-dioxabicyclo[3.2.1]octan-3-yl)amino)pyrimidin-4-yl)-4-fluoro-1-isopropyl-1H-benzo[d]imidazol-2-yl)-N,N-dimethylcyclopropane-1-carboxamide] |
| 40 to 150 nM | – | > 1000 nM | – | CC(C)n1c(C2CC(F)C2)nc2c(F)cc(-c3nc(N[C@@H]4C[C@H]5CO[C@H](O5)[C@H]4O)ncc3Cl)cc21 (stereo partly drawn) [Compound 243, (1S,3R,4S,5R)-3-((5-chloro-4-(4-fluoro-2-((1r,3R)-3-fluorocyclobutyl)-1-isopropyl-1H-benzo[d]imidazol-6-yl)pyrimidin-2-yl)amino)-6,8-dioxabicyclo[3.2.1]octan-4-ol] |
| – | ≤ 40 nM | – | ≤ 120 nM | CC(C)(O)c1cnc2c(Cl)cc(-c3nc(N[C@@H]4C[C@H]5CO[C@H](O5)[C@H]4O)ncc3Cl)cc2c1Cl [Compound 286, (1S,3R,4S,5R)-3-((5-chloro-4-(4,8-dichloro-3-(2-hydroxypropan-2-yl)quinolin-6-yl)pyrimidin-2-yl)amino)-6,8-dioxabicyclo[3.2.1]octan-4-ol] |
| – | 150 to 1000 nM | – | 120 to 450 nM | CC(C)(O)c1cnc2c(F)cc(-c3nc(N[C@@H]4C[C@H]5CO[C@H](O5)[C@H]4O)ncc3F)cc2c1 [Compound 254, (1S,3R,4S,5R)-3-((5-fluoro-4-(8-fluoro-3-(2-hydroxypropan-2-yl)quinolin-6-yl)pyrimidin-2-yl)amino)-6,8-dioxabicyclo[3.2.1]octan-4-ol] |
| – | 150 to 1000 nM | – | > 3000 nM | CC(C)[C@@H]1COC(=O)N1c1nc2c(F)cc(-c3nc(N[C@@H]4C[C@H]5CO[C@H](O5)[C@H]4O)ncc3Cl)cc2n1C(C)C [Compound 263, (R)-3-(6-(5-chloro-2-(((1S,3R,4S,5R)-4-hydroxy-6,8-dioxabicyclo[3.2.1]octan-3-yl)amino)pyrimidin-4-yl)-4-fluoro-1-isopropyl-1H-benzo[d]imidazol-2-yl)-4-isopropyloxazolidin-2-one] |
| – | > 1000 nM | – | > 3000 nM | CC(C)(O)c1cc2cc(-c3nc(N[C@@H]4C[C@H]5CO[C@H](O5)[C@H]4O)ncc3Cl)cc(F)c2nn1 [Compound 258, (1S,3R,4S,5R)-3-((5-chloro-4-(8-fluoro-3-(2-hydroxypropan-2-yl)cinnolin-6-yl)pyrimidin-2-yl)amino)-6,8-dioxabicyclo[3.2.1]octan-4-ol] |
| – | 150 to 1000 nM | – | ≤ 120 nM | Cc1c(C(C)(C)O)nnc2c(F)cc(-c3nc(N[C@@H]4C[C@H]5CO[C@H](O5)[C@H]4O)ncc3F)cc12 [Compound 280, (1S,3R,4S,5R)-3-((5-fluoro-4-(8-fluoro-3-(2-hydroxypropan-2-yl)-4-methylcinnolin-6-yl)pyrimidin-2-yl)amino)-6,8-dioxabicyclo[3.2.1]octan-4-ol] |
